The numbers were not newly measured in paper PMC10444862, “Using macromolecular electron densities to improve the enrichment of active compounds in virtual screening” (Communications Chemistry, 2023), which cites them from elsewhere.

The test system of this data set is AMPC. To be noted: activities reported in the DUD-E dataset; cited from earlier work.
Take `Nc1onc(-c2ccc(Cl)cc2)c1C(=O)O` [317_12, Nc1onc(-c2ccc(Cl)cc2)c1C(=O)[O-]]: the label result is reported as “active”.
As to `O=C(O)c1ccccc1S(=O)(=O)Nc1ccc(Cl)cc1` [109_49, O=C([O-])c1ccccc1S(=O)(=O)Nc1ccc(Cl)cc1], the label entry is recorded as “active”.
On to `CSCC[C@@H](C(=O)O)N1C(=O)c2ccc(C(=O)O)cc2C1=O` [212_4, CSCC[C@@H](C(=O)[O-])N1C(=O)c2ccc(C(=O)[O-])cc2C1=O], for which the label result is listed as “active”.
On to `O=C(O)c1sccc1S(=O)(=O)Nc1ccccc1N1CCCCC1` [104_58, O=C([O-])c1sccc1S(=O)(=O)Nc1ccccc1N1CCCCC1], for which the label result is on record as “active”.
Take `Cc1nc2ccc(P(=O)(O)O)cc2s1` [319_2, Cc1nc2ccc([P@](=O)([O-])O)cc2s1]: the label result is “active”.
